Assay results from the supplement of paper PMC10307832.

How the values were obtained:
Test in all cases: relative viability (nuclei count vs DMSO), 5 days (fraction); higher = more cells survive
Mirin + Bortezomib = compound: N=C1NC(=O)/C(=C/c2ccc(O)cc2)S1 [Mirin] + CC(C)C[C@H](NC(=O)[C@H](Cc1ccccc1)NC(=O)c1cnccn1)B(O)O [Bortezomib] (partner 0.002 µM)
Method in brief: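 Lung cancer cell lines in 1536-well plates got either a single drug or a fixed anchor-drug dose together with five library-drug doses (not always all listed) in √10 steps, by pin tool, on the day after seeding. Nuclei were counted after 5 days, and relative viability is the treated-to-vehicle ratio of nuclei counts. Values are medians of duplicate plates.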

[1] = compound: CCn1c(-c2nonc2N)nc2cnc(Oc3cccc(NC(=O)c4ccc(OCCN5CCOCC5)cc4)c3)cc21
Method in brief: (§1)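 In 1536-well plates, lung cancer cell lines rested overnight at 37 °C before five library-drug doses (not always all listed), √10 apart, were pinned onto vehicle-anchored plates. Nuclei were counted with MetaXpress from 4× Hoechst images taken after 5 days without medium change. Viability compares treated-well with vehicle-well nuclei as a median over plates, and plates needed control CV below 25% plus at least one doubling to pass.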

Mirin = compound: N=C1NC(=O)/C(=C/c2ccc(O)cc2)S1 [Mirin]
Method in brief: as §1

[2] = compound: CCC1=CN=CN=C1N2CCN(CC2)CC3=NC4=C(N3)C=C(C=C4)C(F)(F)F
Method in brief: as §1

Cell Line: UMC-11
- relative viability (Mirin + Bortezomib; first compound 0.25 µM): 0.876
- relative viability (Mirin + Bortezomib; first compound 0.7906 µM): 0.457
- relative viability (Mirin + Bortezomib; first compound 2.5 µM): 0.629
- relative viability (Mirin + Bortezomib; first compound 7.906 µM): 0.636
- relative viability (Mirin + Bortezomib; first compound 25 µM): 0.547
- relative viability ([1]; 0.04 µM): 0.965
- relative viability ([1]; 0.1265 µM): 0.85
- relative viability ([1]; 0.4 µM): 0.481
- relative viability ([1]; 1.265 µM): 0.275
- relative viability ([1]; 4 µM): 0.236
- relative viability (Mirin; 0.25 µM): 1.01
- relative viability (Mirin; 0.7906 µM): 0.657
- relative viability (Mirin; 2.5 µM): 1.02
- relative viability (Mirin; 7.906 µM): 0.803
- relative viability (Mirin; 25 µM): 0.608
- relative viability ([2]; 0.04 µM): 0.925
- relative viability ([2]; 0.1265 µM): 0.948
- relative viability ([2]; 0.4 µM): 0.933
- relative viability ([2]; 1.265 µM): 0.838
- relative viability ([2]; 4 µM): 0.888
